ChEMBL document CHEMBL1138593, “Structural modification of 3-arylisoquinolines to isoindolo[2,1-b]isoquinolinones for the development of novel topoisomerase 1 inhibitors with molecular docking study” (2009)
Calls of active or inactive are those of the source. The calls are words filed in the database; no cut-off is given here.

Experiments:
Bos taurus = organism: Bos taurus; assay: Inhibition of calf thymus DNA topoisomerase 1 assessed as relaxation of supercoiled Escherichia coli pBR322 DNA at 100 ug/mL after 30 mins by agarose gel electrophoresis
HCT-15 = assay: Cytotoxicity against human HCT15 cells by sulforhodamine B assay; format: functional
A549 = assay: Cytotoxicity against human A549 cells by sulforhodamine B assay; format: functional
SK-OV-3 = assay: Cytotoxicity against human SKOV3 cells by sulforhodamine B assay; format: functional

| SMILES | topoisomerase 1 inhibition (active/not active) (Bos taurus) | Activity (HCT-15) | Activity (A549) | Activity (SK-OV-3) |
| --- | --- | --- | --- | --- |
| COc1ccc2c(c1)Cn1c-2cc2ccc(C)cc2c1=O | inactive | 34.33 µg/mL | 45.12 µg/mL | 15.34 µg/mL |
| Cc1ccc2c(=O)[nH]c(-c3ccccc3CO)cc2c1 |  | 3.34 µg/mL | 3.66 µg/mL | 8.22 µg/mL |
| COc1ccc2c(c1)Cn1c-2cc2ccccc2c1=O | Active | 7.29 µg/mL | 9.25 µg/mL | 12.01 µg/mL |
| COc1ccc(COCc2ccccc2-c2cc3ccccc3c(=O)[nH]2)cc1 |  | 17.39 µg/mL | 26.56 µg/mL | 24.66 µg/mL |
| CC[C@@]1(O)C(=O)OCc2c1cc1n(c2=O)Cc2cc3ccccc3nc2-1 [CAMPTOTHECIN] | Active | 0.089 µg/mL | 0.072 µg/mL | 0.035 µg/mL |
| Cc1ccc2cc3n(c(=O)c2c1)Cc1ccccc1-3 | Active | 35.27 µg/mL | 41.44 µg/mL | 48.92 µg/mL |
| COCOCc1cc(OC)ccc1-c1cc2ccc(C)cc2c(=O)[nH]1 |  | 40.05 µg/mL | 66.52 µg/mL | 23.08 µg/mL |
| COc1cc2c(cc1OC)-c1cc3cc(C)ccc3c(=O)n1C2 | inactive | 34.98 µg/mL | 49.09 µg/mL | 36.15 µg/mL |
| O=c1[nH]c(-c2ccccc2CO)cc2ccccc12 |  | 3.88 µg/mL | 6.89 µg/mL | 21.98 µg/mL |
| COCOCc1cc(OC)ccc1-c1cc2cc(C)ccc2c(=O)[nH]1 |  | 29.26 µg/mL | 80.22 µg/mL | 31.26 µg/mL |
| COc1cc2c(cc1OC)-c1cc3ccc(C)cc3c(=O)n1C2 | inactive | 6.56 µg/mL | 24.13 µg/mL | 7.23 µg/mL |
| COCOCc1cc(OC)ccc1-c1cc2ccccc2c(=O)[nH]1 |  | 21.84 µg/mL | 32.98 µg/mL | 17.06 µg/mL |
| COc1ccc(-c2cc3ccc(C)cc3c(=O)[nH]2)c(CO)c1 |  | 7.39 µg/mL | 10.11 µg/mL | 9.69 µg/mL |
| COCOCc1cc(OC)c(OC)cc1-c1cc2ccccc2c(=O)[nH]1 |  | 24.7 µg/mL | 16.04 µg/mL | 12.68 µg/mL |
| COc1cc2c(cc1OC)-c1cc3ccccc3c(=O)n1C2 | inactive | 9.12 µg/mL | 36.75 µg/mL | 12.69 µg/mL |
| COc1ccc(COCc2ccccc2-c2cc3ccc(C)cc3c(=O)[nH]2)cc1 |  | 4.15 µg/mL | 3.33 µg/mL | 4.76 µg/mL |
| COc1ccc(-c2cc3ccccc3c(=O)[nH]2)c(CO)c1 |  | 0.21 µg/mL | 3.65 µg/mL | 0.37 µg/mL |
| COCOCc1cc(OC)c(OC)cc1-c1cc2cc(C)ccc2c(=O)[nH]1 |  | 34.55 µg/mL | 43.65 µg/mL | 34.54 µg/mL |
| COc1cc(CO)c(-c2cc3ccc(C)cc3c(=O)[nH]2)cc1OC |  | 22.45 µg/mL | 15.15 µg/mL | 0.67 µg/mL |
| COc1cc(CO)c(-c2cc3ccccc3c(=O)[nH]2)cc1OC |  | 19.68 µg/mL | 7.32 µg/mL | 12.58 µg/mL |
| COc1ccc(-c2cc3cc(C)ccc3c(=O)[nH]2)c(CO)c1 |  | 4.28 µg/mL | 19.43 µg/mL | 14.59 µg/mL |
| COc1ccc2c(c1)Cn1c-2cc2cc(C)ccc2c1=O | inactive | 8.78 µg/mL | 5.95 µg/mL | 5.52 µg/mL |
| COc1cc(CO)c(-c2cc3cc(C)ccc3c(=O)[nH]2)cc1OC |  | 7.17 µg/mL | 22.1 µg/mL | 7.8 µg/mL |
| COc1ccc(COCc2ccccc2-c2cc3cc(C)ccc3c(=O)[nH]2)cc1 |  | 13.27 µg/mL | 7.44 µg/mL | 2.37 µg/mL |
| O=c1c2ccccc2cc2n1Cc1ccccc1-2 | Active | 43.93 µg/mL | 3.7 µg/mL | 14.84 µg/mL |
| COCOCc1cc(OC)c(OC)cc1-c1cc2ccc(C)cc2c(=O)[nH]1 |  | 31.13 µg/mL | 25.02 µg/mL | 28.22 µg/mL |
| Cc1ccc2cc(-c3ccccc3CO)[nH]c(=O)c2c1 |  | 23.11 µg/mL | 12.78 µg/mL | 0.22 µg/mL |
| Cc1ccc2c(=O)n3c(cc2c1)-c1ccccc1C3 | Active | 46.35 µg/mL | 15.94 µg/mL | 44.12 µg/mL |
